Laboratory results: US10538555B2, “Macrocyclic inhibitors of the PD-1/PD-L1 and CD80(B7-1)/PD-L1 protein/protein interactions” (BRISTOL-MYERS SQUIBB COMPANY, priority 2014, dated 2020)
Where a SMILES comes first, the peptide text is derived from it. Bridges are numbered along the chain shown (N, C = ends). [ ]: non-standard residue; d: D form. ξ: configuration not given here. Trp(1-CH2COOH) = N[C@@H](Cc1cn(CC(=O)O)c2ccccc12)C(=O)O; Trp(βS-Me) = C[C@@H](c1c[nH]c2ccccc12)[C@H](N)C(=O)O; Phe(3,4,5-F3) = N[C@@H](Cc1cc(F)c(F)c(F)c1)C(=O)O; Trp(7-aza) = N[C@@H](Cc1c[nH]c2ncccc12)C(=O)O; Phe(3,4-F2) = N[C@@H](Cc1ccc(F)c(F)c1)C(=O)O; Hyp = O=C(O)[C@@H]1C[C@@H](O)CN1; NMeF = CN[C@@H](Cc1ccccc1)C(=O)O; dNMeF = CN[C@H](Cc1ccccc1)C(=O)O; dHyp = O=C(O)[C@H]1C[C@H](O)CN1; NMeNle = CCCC[C@H](NC)C(=O)O; Pip = O=C(O)[C@@H]1CCCCN1; dPip = O=C(O)[C@H]1CCCCN1; hSer = N[C@@H](CCO)C(=O)O; NMeA = CN[C@@H](C)C(=O)O; Dab = NCC[C@H](N)C(=O)O; Dap = NC[C@H](N)C(=O)O; ξC = NC(CS)C(=O)O; Sar = CNCC(=O)O

Each molecule was assayed against T1, Human PD-L1/PD-1 (Homo sapiens, UniProt Q9NZQ7) (assay: HTRF Human PD-L1/PD-1 binding assay (PD-1-Ig/PD-L1-His)). Conditions: PD-L1-His 10 nM, PD-1-Ig 20 nM; class symbol; read-out: HTRF Human PD-L1/PD-1 Binding Assay IC50 Range.
T1 construct: TVMV protease cleavage site (C); made in house; host or cells: HEK293T cells
T1 sequence (Q9NZQ7 with tags, fused parts or gaps): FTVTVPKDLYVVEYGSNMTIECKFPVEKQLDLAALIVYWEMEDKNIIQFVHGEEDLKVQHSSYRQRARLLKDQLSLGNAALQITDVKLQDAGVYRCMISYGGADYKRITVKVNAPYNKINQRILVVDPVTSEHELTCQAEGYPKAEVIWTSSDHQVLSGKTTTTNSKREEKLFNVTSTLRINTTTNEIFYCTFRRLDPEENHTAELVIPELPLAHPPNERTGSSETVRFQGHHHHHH
Procedure, shortened: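 Compound preincubated 15 min with PD-L1-His (10 nM final), then PD-1-Ig (20 nM final) added for 15 min in dPBS with 0.1% BSA and 0.05% Tween-20. Detection by Eu-cryptate anti-Ig (1 nM) and APC anti-His (20 nM) after 30 min; 665/620 nm HTRF ratio. Proteins expressed in HEK293T.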

Row | IC50 [nM] | SMILES
1 | 1 to 9.9 | CCCC[C@H]1C(=O)N(C)[C@@H](CCCC)C(=O)N[C@@H](CCC(=O)O)C(=O)N[C@H](C(=O)NCC(N)=O)CSCC(=O)N[C@@H](Cc2ccc(O)cc2)C(=O)N(C)[C@@H](C)C(=O)N[C@@H](CC(N)=O)C(=O)N2CCC[C@H]2C(=O)N[C@@H](CN)C(=O)N[C@@H](CCC(N)=O)C(=O)N2C[C@H](O)C[C@H]2C(=O)N[C@@H](Cc2c[nH]c3ccccc23)C(=O)N[C@@H](CCC(=O)O)C(=O)N[C@@H](Cc2c[nH]c3ccccc23)C(=O)N1C [Example 5191] ({CH2CO}-Y[NMeA]NP[Dap]Q[Hyp]WEW[NMeNle][NMeNle]ECG-NH2; thioether N-14)
2 | 10 to 99.9 | CCCC[C@H]1C(=O)N(C)CC(=O)N[C@@H](CC(N)=O)C(=O)N[C@@H](C(C)C)C(=O)N(C)[C@@H](Cc2ccccc2)C(=O)N[C@@H](Cc2ccc(O)cc2)C(=O)N(C)CC(=O)N[C@@H](Cc2c[nH]c3ncccc23)C(=O)N[C@@H](Cc2ccc(O)cc2)C(=O)N[C@@H](CC(C)C)C(=O)N[C@H](C(=O)NCC(N)=O)CSCC(=O)N[C@@H](Cc2ccccc2)C(=O)N(C)[C@@H](Cc2ccccc2)C(=O)N1C [Example 3241] ({CH2CO}-F[NMeF][NMeNle][Sar]NV[NMeF]Y[Sar][Trp(7-aza)]YLCG-NH2; thioether N-13)
3 | 1 to 9.9 | CCCC[C@H]1C(=O)N(C)[C@@H](CCCC)C(=O)N[C@@H](CN)C(=O)N[C@H](C(=O)NCC(N)=O)CSCC(=O)N[C@@H](Cc2ccc(O)cc2)C(=O)N(C)[C@@H](C)C(=O)N[C@@H](CC(N)=O)C(=O)N2CCC[C@H]2C(=O)N[C@@H](CN)C(=O)N[C@@H](CCC(N)=O)C(=O)N2C[C@H](O)C[C@H]2C(=O)N[C@@H](Cc2c[nH]c3ccccc23)C(=O)N[C@@H](CO)C(=O)N[C@@H](Cc2cn(CC(=O)O)c3ccccc23)C(=O)N1C [Example 5253] ({CH2CO}-Y[NMeA]NP[Dap]Q[Hyp]WS[Trp(1-CH2COOH)][NMeNle][NMeNle][Dap]CG-NH2; thioether N-14)
4 | 100 to 990 | CCCC[C@H]1C(=O)N(C)[C@@H](CCCC)C(=O)N[C@@H](CCC(=O)O)C(=O)NC(C(=O)NCC(N)=O)CSCC(=O)N[C@@H](Cc2ccc(O)cc2)C(=O)N(C)[C@@H](C)C(=O)N[C@@H](CC(N)=O)C(=O)N2CCC[C@H]2C(=O)N[C@@H](Cc2c[nH]cn2)C(=O)N[C@@H](CC(N)=O)C(=O)N2CCC[C@H]2C(=O)N[C@@H](Cc2c[nH]c3ccccc23)C(=O)N[C@@H](CC(=O)O)C(=O)N[C@@H](Cc2c[nH]c3ccccc23)C(=O)N1C (stereo partly drawn) [Example 9174] ({CH2CO}-Y[NMeA]NPHNPWDW[NMeNle][NMeNle]E[ξC]G-NH2; thioether N-14)
5 | 10 to 99.9 | CCCC[C@H]1C(=O)N(C)[C@@H](CCCC)C(=O)N[C@@H](CC(C)C)C(=O)N[C@H](C(=O)NCC(N)=O)CSCC(=O)N[C@@H](Cc2ccc(O)cc2)C(=O)N(C)[C@@H](C)C(=O)N[C@@H](CC(N)=O)C(=O)N2CCC[C@H]2C(=O)N[C@@H](Cc2cnc[nH]2)C(=O)N[C@@H](CCC(N)=O)C(=O)N2C[C@H](O)C[C@H]2C(=O)N[C@@H](Cc2c[nH]c3ccccc23)C(=O)N[C@@H](CCN)C(=O)N[C@@H](Cc2cn(CC(=O)O)c3ccccc23)C(=O)N1C [Example 5241] ({CH2CO}-Y[NMeA]NPHQ[Hyp]W[Dab][Trp(1-CH2COOH)][NMeNle][NMeNle]LCG-NH2; thioether N-14)
6 | 1000 to 10000 | CCCC[C@H]1C(=O)N[C@@H](CC(N)=O)C(=O)N2CCC[C@H]2C(=O)N[C@@H](Cc2c[nH]cn2)C(=O)N[C@@H](CCC(=O)O)C(=O)N2C[C@H](O)C[C@H]2C(=O)N[C@@H]([C@@H](C)c2c[nH]c3ccccc23)C(=O)N[C@@H](CCN)C(=O)N[C@@H](Cc2c[nH]c3ccccc23)C(=O)N(C)[C@@H](C)C(=O)N(C)[C@@H](C)C(=O)N[C@@H](CC(C)C)C(=O)N[C@H](C(=O)NCC(N)=O)CSCC(=O)N[C@@H](Cc2ccc(O)cc2)C(=O)N1C [Example 10540] ({CH2CO}-Y[NMeNle]NPHE[Hyp][Trp(βS-Me)][Dab]W[NMeA][NMeA]LCG-NH2; thioether N-14)
7 | 1 to 9.9 | CCCC[C@H]1C(=O)N(C)[C@@H](CCCC)C(=O)N[C@@H](CC(=O)O)C(=O)N[C@H](C(=O)NCC(N)=O)CSCC(=O)N[C@@H](Cc2ccc(O)cc2)C(=O)N2CCCC[C@H]2C(=O)N[C@@H](CC(=O)O)C(=O)N2CCC[C@H]2C(=O)N[C@@H](Cc2cnc[nH]2)C(=O)N[C@@H](CCCCN)C(=O)N2C[C@H](O)C[C@H]2C(=O)N[C@@H](Cc2c[nH]c3ccccc23)C(=O)N[C@@H](CCCCN)C(=O)N[C@@H](Cc2cn(CC(=O)O)c3ccccc23)C(=O)N1C [Example 1302] ({CH2CO}-Y[Pip]DPHK[Hyp]WK[Trp(1-CH2COOH)][NMeNle][NMeNle]DCG-NH2; thioether N-14)
8 | 1 to 9.9 | CCCC[C@H]1C(=O)N(C)[C@@H](CCCC)C(=O)N[C@@H](CCC(=O)O)C(=O)N[C@H](C(=O)NCC(N)=O)CSCC(=O)N[C@@H](Cc2ccc(O)cc2)C(=O)N2CCCC[C@H]2C(=O)N[C@@H](CC(N)=O)C(=O)N2CCC[C@H]2C(=O)N[C@@H](Cc2cnc[nH]2)C(=O)N[C@@H](CCC(N)=O)C(=O)N2C[C@H](O)C[C@H]2C(=O)N[C@@H](Cc2c[nH]c3ccccc23)C(=O)N[C@@H](CO)C(=O)N[C@@H](Cc2c[nH]c3ccccc23)C(=O)N1C [Example 1250] ({CH2CO}-Y[Pip]NPHQ[Hyp]WSW[NMeNle][NMeNle]ECG-NH2; thioether N-14)
9 | 1 to 9.9 | CCCC[C@H]1C(=O)N(C)[C@@H](CCCC)C(=O)N[C@@H](CCC(=O)O)C(=O)N[C@H](C(=O)NCC(N)=O)CSCC(=O)N[C@@H](Cc2ccc(O)cc2)C(=O)N(C)[C@@H](C)C(=O)N[C@@H](CC(=O)O)C(=O)N2CCC[C@H]2C(=O)N[C@@H](CN)C(=O)N[C@@H](CCC(=O)O)C(=O)N2C[C@H](O)C[C@H]2C(=O)N[C@@H](Cc2c[nH]c3ccccc23)C(=O)N[C@@H](CCN)C(=O)N[C@@H](Cc2c[nH]c3ccccc23)C(=O)N1C [Example 5224] ({CH2CO}-Y[NMeA]DP[Dap]E[Hyp]W[Dab]W[NMeNle][NMeNle]ECG-NH2; thioether N-14)
10 | 10 to 99.9 | CCCC[C@H]1C(=O)N2C[C@@H](O)C[C@@H]2C(=O)N[C@@H](CC(=O)O)C(=O)N[C@@H](C(C)C)C(=O)N(C)[C@H](Cc2ccccc2)C(=O)N[C@@H](Cc2ccc(O)cc2)C(=O)N2C[C@@H](O)C[C@@H]2C(=O)N[C@@H](Cc2c[nH]c3ccccc23)C(=O)N[C@@H](Cc2ccc(O)cc2)C(=O)N[C@@H](CC(C)C)C(=O)N[C@H](C(=O)NCC(N)=O)CSCC(=O)N[C@@H](Cc2ccc(F)c(F)c2)C(=O)N(C)[C@@H](Cc2ccccc2)C(=O)N1C [Example 9228] ({CH2CO}-[Phe(3,4-F2)][NMeF][NMeNle][dHyp]DV[dNMeF]Y[dHyp]WYLCG-NH2; thioether N-13)
11 | 1 to 9.9 | CCCC[C@H]1C(=O)N2CCC[C@@H]2C(=O)N[C@@H](CC(=O)O)C(=O)N[C@@H](C(C)C)C(=O)N(C)[C@@H](Cc2ccccc2)C(=O)N[C@@H](Cc2ccc(O)cc2)C(=O)N2CCC[C@@H]2C(=O)N[C@@H](Cc2c[nH]c3ccccc23)C(=O)N[C@@H](Cc2ccc(O)cc2)C(=O)N[C@@H](CCC(=O)O)C(=O)N[C@H](C(=O)NCC(N)=O)CSCC(=O)N[C@@H](Cc2cc(F)c(F)c(F)c2)C(=O)N(C)[C@@H](Cc2ccccc2)C(=O)N1C [Example 10097] ({CH2CO}-[Phe(3,4,5-F3)][NMeF][NMeNle][dP]DV[NMeF]Y[dP]WYECG-NH2; thioether N-13)
12 | 1 to 9.9 | CCCC[C@H]1C(=O)N(C)[C@@H](CCCC)C(=O)N[C@@H](CC(C)C)C(=O)N[C@H](C(=O)NCC(N)=O)CSCC(=O)N[C@@H](Cc2ccc(O)cc2)C(=O)N(C)[C@@H](C)C(=O)N[C@@H](CC(N)=O)C(=O)N[C@H](C)C(=O)N[C@@H](Cc2cnc[nH]2)C(=O)N[C@@H](CCC(N)=O)C(=O)N2C[C@H](O)C[C@H]2C(=O)N[C@@H](Cc2c[nH]c3ccccc23)C(=O)N[C@@H](CO)C(=O)N[C@@H](Cc2c[nH]c3ccccc23)C(=O)N1C [Example 6262] ({CH2CO}-Y[NMeA]N[dA]HQ[Hyp]WSW[NMeNle][NMeNle]LCG-NH2; thioether N-14)
13 | 1 to 9.9 | CCCC[C@H]1C(=O)N2C[C@@H](O)C[C@@H]2C(=O)N[C@@H](CC(=O)O)C(=O)N[C@@H](C(C)C)C(=O)N(C)[C@@H](Cc2ccccc2)C(=O)N[C@@H](CCC(=O)O)C(=O)N2CCCC[C@@H]2C(=O)N[C@@H](Cc2cn(CC(=O)O)c3ccccc23)C(=O)N[C@@H](Cc2ccc(O)cc2)C(=O)N[C@@H](CC(C)C)C(=O)N[C@H](C(=O)NCC(N)=O)CSCC(=O)N[C@@H](Cc2cc(F)c(F)c(F)c2)C(=O)N(C)[C@@H](Cc2ccccc2)C(=O)N1C [Example 10586] ({CH2CO}-[Phe(3,4,5-F3)][NMeF][NMeNle][dHyp]DV[NMeF]E[dPip][Trp(1-CH2COOH)]YLCG-NH2; thioether N-13)
14 | 1 to 9.9 | CCCC[C@H]1C(=O)N(C)[C@@H](CCCC)C(=O)N[C@@H](CC(C)C)C(=O)N[C@H](C(N)=O)CSCC(=O)N[C@@H](Cc2ccc(O)cc2)C(=O)N(C)[C@@H](C)C(=O)N[C@@H](CC(N)=O)C(=O)N2CCC[C@H]2C(=O)N[C@@H](CN)C(=O)N[C@@H](CC(C)C)C(=O)N2C[C@H](O)C[C@H]2C(=O)N[C@@H](Cc2c[nH]c3ccccc23)C(=O)N[C@@H](CO)C(=O)N[C@@H](Cc2cn(CC(=O)O)c3ccccc23)C(=O)N1C [Example 6180] ({CH2CO}-Y[NMeA]NP[Dap]L[Hyp]WS[Trp(1-CH2COOH)][NMeNle][NMeNle]LC-NH2; thioether N-14)
15 | 1000 to 10000 | CCCC[C@H]1C(=O)N[C@@H](CC(N)=O)C(=O)N2CCC[C@H]2C(=O)N[C@@H](CO)C(=O)N[C@@H](CCO)C(=O)N2CCC[C@H]2C(=O)N[C@@H](Cc2c[nH]c3ccccc23)C(=O)N[C@@H](CCO)C(=O)N[C@@H](Cc2c[nH]c3ccccc23)C(=O)N(C)[C@@H](C)C(=O)N(C)[C@@H](C)C(=O)N[C@@H](CCC(=O)O)C(=O)NC(C(=O)NCC(N)=O)CSCC(=O)N[C@@H](Cc2ccc(O)cc2)C(=O)N1C (stereo partly drawn) [Example 10215] ({CH2CO}-Y[NMeNle]NPS[hSer]PW[hSer]W[NMeA][NMeA]E[ξC]G-NH2; thioether N-14)
